Assay results published in patent US5723139A, “Skin care compositions containing a polycyclic triterpene carboxylic acid and a retinoid” (Chesebrough-Pond's USA Co., Division of Conopco, Inc., priority 1996, dated 1998).
Entries after “also recorded” stand apart in the source; their conditions may differ.

Columns and labels:
[1] = tested on: human keratinocyte transglutaminase I (TGase I); assay: Transglutaminase I ELISA in cultured keratinocytes, normalized to DNA content (Examples 2 and 3 procedure); assay type: cell-based; conditions: for mean TGase/DNA × 10^5 ± s.d / effect on keratinocyte TG1 level / differentiation (in words) / activity at 1 µM / activity at 0.25 µM / activity at 0.0025 µM: 72 hours; for mean TGase/DNA × 10^5 ± s.d / activity at 1 µM / activity at 0.25 µM / activity at 0.0025 µM: n = 3; for activity at 1 µM / activity at 0.25 µM / activity at 0.0025 µM: Homo sapiens, Keratinocyte, % of control; for activity at 0.25 µM: Example 3, Table 3; for activity at 0.0025 µM: Example 2, Table 2; for effect on keratinocyte differentiation / transglutaminase I levels (in words, summary): summary of Examples 1-3
Description: Human keratinocytes, isolated from neonatal foreskin by trypsin treatment were grown in Dulbecco Modification Eagle (DME) Hams F12 (1:1) medium/10% fetal calf serum in the presence of irradiated 3T3 mouse fibroblasts for establishing dividing keratinocyte colonies. Cells were grown under the above condition until their second passage and kept frozen for future use. Frozen second passage keratinocytes were thawed and plated into the above medium and grown for five days before they were switched to a serum-free MCDB 153-based medium keratinocyte growth medium (KGM) from Clonetics Corporation, San Diego, Calif., containing 0.15 mM Ca, or keratinocyte serum-free media (KSFM) from GIBCO containing 0.09 mM Ca). On day 7, when the cells were 80-90% confluent, they were trypsinized and plated in the serum-free medium for the various experiments.
During the process of terminal differentiation in the epidermis, a 15 nm thick layer of protein, known as the cornified envelope (CE) is formed on the inner surface of the cell periphery. The CE is composed of numerous distinct proteins which have been cross-linked together by the formation of N^ε -(γ-glutamyl) lysine isodipeptide bonds catalyzed by the action of at least two different transglutaminases (TGases) expressed in the epidermis. TGase I is expressed in abundance in the differentiated layers of the epidermis, especially the granular layer, but is absent in the undifferentiated basal epidermis. Thus TGase I is a useful marker of epidermal keratinocyte differentiation with high TGase I levels indicating a more differentiated state. An ELISA based TGase I assay, using a TGase I antibody, was used to assess the state of differentiation of the cultured keratinocytes in the examples that follow.
Keratinocytes (cultured as described above) were plated in 96 well plates at a density of 3,000 cells per well in 200 μl of cell culture media. After incubation for four days, the media was changed to media containing test compounds (six replicates per test). The cells were cultured for a further 72 hours after which time the media was aspirated and the plates stored at -70° C. After the plates were removed from the freezer, the cells were further freezed fractured by freezing and thawing and then washed 3x with PBS. The cells were incubated for one hour at room temperature (R/T) with TBS/5% BSA buffer. Cells were then incubated with 100 μl of monoclonal anti-human transglutaminase (IgG) mouse antibody (primary antibody) obtained from Biomedical Technologies Inc. diluted 1:2000 in TBS/1% BSA buffer for two hours at 37° C., and then rinsed six times with wash buffer (TBS/1% BSA/0.05% Tween-20). Cells were next incubated with 100 μl of Fab fragment, peroxidase conjugated anti-mouse IgG antibody (secondary antibody) from Amersham diluted 1:4,000 in wash buffer for two hours at 37° C. and then rinsed three times with wash buffer and three times with PBS. Cells were incubated with substrate solution (4mg o-phenylene diamine and 3.3 μl 30% H2 O2 in 10 mL 0.1M citrate buffer, pH 5.0) for five minutes at R/T and in darkness (under aluminum foil). The reaction was stopped by the addition of 50 μl 4N H2SO4. The absorbance of samples was read at 492 nm in the plate reader. Out of the six replicates, four were treated with both antibodies, two were treated only with the secondary antibody (i.e., to determine the background binding of the enzyme conjugated antibody). Transglutaminase I levels were determined by subtracted background from the readings from each treatment and determining the mean s.d. for the replicates exposed to both antibodies.
The level of TGase-1 detected after treatment of the cells could be influenced by cell number, i.e., the greater the number of cells the greater the level of TGase-1 detected. The level of TGase-1 was normalized to DNA content of the cells in the same well thus eliminating variation due to differences in cell number. […]

[2] = tested on: human keratinocyte transglutaminase I (TGase I); assay: Transglutaminase I ELISA in cultured keratinocytes, normalized to DNA content (Example 1 procedure); assay type: cell-based; conditions: 2.5×10^-7 M, 2.5×10^-8 M and 2.5×10^-9 M, vs ethanol control
Description: Human keratinocytes, isolated from neonatal foreskin by trypsin treatment were grown in Dulbecco Modification Eagle (DME) Hams F12 (1:1) medium/10% fetal calf serum in the presence of irradiated 3T3 mouse fibroblasts for establishing dividing keratinocyte colonies. Cells were grown under the above condition until their second passage and kept frozen for future use. […] On day 7, when the cells were 80-90% confluent, they were trypsinized and plated in the serum-free medium for the various experiments.
During the process of terminal differentiation in the epidermis, a 15 nm thick layer of protein, known as the cornified envelope (CE) is formed on the inner surface of the cell periphery. […]
Keratinocytes (cultured as described above) were plated in 96 well plates at a density of 3,000 cells per well in 200 μl media. […] The absorbance of samples was read at 492 nm in the plate reader. […] TGase levels were determined by subtracting background from the readings from each treatment and determining mean±s.d. for the replicates exposed to both Ab.
The level of TGase-1 was normalized to DNA content of the cells in the same well thus eliminating variation due to differences in cell number. DNA quantitation is a particularly useful indicator of cell number, including keratinocyte cell number, because each cell has to all intents and purposes an identical genome and therefore an identical quantity of DNA. […]

skin keratinocytes = assay: Thymidine incorporation / proliferation of skin keratinocytes; assay type: cell-based, human; conditions: summary of Examples 1-3
[3] = Example 3, 2.5×10^-7 M retinoic acid or retinol, 10^-6 M oleanolic acid
[4] = Example 2, 2.5×10^-9 M retinoic acid or retinol, 10^-6 M glycyrrhizic acid

| Compound | mean TGase/DNA × 10^5 ± s.d ([1]; 10^-6 M, Table 3) | effect on keratinocyte TG1 level / differentiation (in words) [1, 3] | activity at 1 µM ([1]; 10^-6 M, Table 3) | mean TGase/DNA × 10^5 ± s.d ([1]; 2.5 × 10^-7 M, Table 3) | mean TGase/DNA × 10^5 ± s.d ([1]; 2.5 × 10^-9 M, Table 2) | effect on keratinocyte TG1 level / differentiation (in words) [1, 4] | activity at 0.25 µM ([1]; 2.5 × 10^-7 M) | activity at 0.0025 µM ([1]; 2.5 × 10^-9 M) | effect on keratinocyte differentiation / transglutaminase I levels (in words, summary) [1] | effect on keratinocyte differentiation / transglutaminase level (in words) [2] | effect on thymidine incorporation / keratinocyte proliferation (in words) (skin keratinocytes) | mean TGase/DNA × 10^5 ± s.d ([1]; 10^-6 M, Table 2) | activity at 1 µM ([1]; 10^-6 M, Table 2) |
| --- | --- | --- | --- | --- | --- | --- | --- | --- | --- | --- | --- | --- | --- |
| CC1(C)CC[C@]2(C(=O)O)CC[C@]3(C)C(=CC[C@@H]4[C@@]5(C)CC[C@H](O)C(C)(C)[C@@H]5CC[C@]43C)[C@@H]2C1 [Oleanolic Acid, Oleanolic acid] | 20.95 ± 1.95 × 10^5 | only a very slight inhibitory effect on the keratinocyte TG1 level | 93% | – | – | – | – | – | – | – | – | – | – |
| CC1=C(/C=C/C(C)=C/C=C/C(C)=C/CO)C(C)(C)CCC1 [ROH, Retinol] | – | less effective than retinoic acid | – | 18.27 ± 3.30 × 10^5 | 8.29 ± 2.11 × 10^5 | less effective than retinoic acid | 81% | 68% | significantly less effective than retinoic acid at inhibiting keratinocyte differentiation | dose dependent | – | – | – |
| CC1=C(/C=C/C(C)=C/C=C/C(C)=C/C(=O)O)C(C)(C)CCC1 [RA, Retinoic acid, reference compound] | – | very effective at repressing keratinocyte TG1 levels | – | 9.95 ± 2.74 × 10^5 | 4.04 ± 1.23 × 10^5 | very effective at repressing keratinocyte TG1 levels | 44% | 33% | decreased transglutaminase I levels | decreased keratinocyte differentiation; also recorded: dose dependent | increased thymidine incorporation | – | – |
| CC1(C)[C@@H](O[C@H]2O[C@H](C(=O)O)[C@@H](O)[C@H](O)[C@H]2O[C@@H]2O[C@H](C(=O)O)[C@@H](O)[C@H](O)[C@H]2O)CC[C@]2(C)[C@H]3C(=O)C=C4[C@@H]5C[C@@](C)(C(=O)O)CC[C@]5(C)CC[C@@]4(C)[C@]3(C)CC[C@@H]12 [Glycyrrhizic acid] | – | – | – | – | – | no inhibitory effect on the keratinocyte TG1 level | – | – | – | – | – | 11.98 ± 3.00 × 10^5 | 99% |
